Experimental data reported in ChEMBL document CHEMBL5506012, “Targeting Myeloid Leukemia-1 in Cancer Therapy: Advances and Directions” (J Med Chem, 2024).

Legend:
[1] = target: T1, Induced myeloid leukemia cell differentiation protein Mcl-1 (Homo sapiens, UniProt Q07820); assay: Inhibition of human recombinant Mcl-1 by Surface Plasmon Resonance assay
[2] = target: T1, Induced myeloid leukemia cell differentiation protein Mcl-1; assay: Binding affinity to N-terminal His-tagged human recombinant Mcl-1 (172 to 327 residues) expressed in Escherichia coli BL21 (DE3) assessed as inhibition constant
MV4-11 [3] = assay: animal or person; conditions: Mus musculus, MV4-11, po, 120 h, read-out: TGI
Description: Antitumor activity against human MV4-11 cells xenografted in C57BL/6 mouse assessed as tumor growth inhibition at 12.5 mg/kg, po administered once daily for 5 days relative to control

NCI-H929 [4] = assay: Antiproliferative activity against human NCI-H929 cells assessed as reduction in cell viability; format: functional, cell-based
OCI-AML-5 = assay: Antiproliferative activity against human OCI-AML5 cells assessed as reduction in cell viability incubated for 48 hrs by MTT assay; conditions: OCI-AML-5, 48 h
[5] = target: T2, Apoptosis regulator Bcl-2 (Homo sapiens, UniProt P10415); assay: Binding affinity to human Bcl-2 assessed as inhibition constant SPR assay
T2 sequence (P10415 whole entry): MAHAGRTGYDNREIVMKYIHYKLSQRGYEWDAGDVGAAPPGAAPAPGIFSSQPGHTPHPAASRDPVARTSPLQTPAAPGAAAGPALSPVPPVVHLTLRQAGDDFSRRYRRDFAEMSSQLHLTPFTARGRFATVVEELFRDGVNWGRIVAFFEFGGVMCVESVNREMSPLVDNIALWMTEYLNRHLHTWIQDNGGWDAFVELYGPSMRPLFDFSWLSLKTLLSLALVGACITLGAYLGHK

THP-1 = assay: Growth inhibition of human THP-1 cells incubated for 48 hrs by cell-titer Glo reagent based assay; format: functional
HCC1187 = assay: Growth inhibition of human HCC1187
MV4-11 [6] = assay: cells; conditions: Homo sapiens, MV4-11, 48 h
Description: Growth inhibition of human MV4-11 cells incubated for 48 hrs by cell-titer Glo reagent based assay

MV4-11 [7] = assay: Antitumor activity against human MV4-11 cells xenografted in SCID mouse assessed as inhibition of tumor growth at 100 mg/kg administered for 14 days consecutively relative to control; format: functional; conditions: MV4-11, 336 h, time 14 day, read-out: TGI
BC = assay: Growth inhibition of human BC cells; format: functional
MOLM-13 [8] = assay: Growth inhibition of human MOLM-13 cells incubated for 48 hrs by cell-titer Glo reagent based assay; format: functional
HL-60 = assay: Growth inhibition of human HL-60 cells incubated for 48 hrs by cell-titer Glo reagent based assay; format: functional
[9] = target: T1, Induced myeloid leukemia cell differentiation protein Mcl-1; assay: Binding affinity to human Mcl-1 assessed as dissociation constant by Surface Plasmon Resonance assay
[10] = target: T1, Induced myeloid leukemia cell differentiation protein Mcl-1; assay: Binding affinity to Mcl-1 (unknown origin) assessed as inhibition constant by Fluorescence polarization assay
AMO1 [11] = assay: Antitumor activity against human AMO1 cells xenografted in mouse model assessed as tumor growth inhibition at 6.25 mg/kg administered for 5 days relative to control; format: functional; conditions: AMO1, 120 h, time 5 day, read-out: TGI
NCI-H522 = assay: Antiproliferative activity against human NCI-H522 cells assessed as reduction in cell viability incubated for 48 hrs by MTT assay; format: functional, cell-based; conditions: NCI-H522, 48 h
SK-MEL-2 = assay: Antiproliferative activity against human SK-MEL-2 cells assessed as reduction in cell viability incubated for 48 hrs by MTT assay; format: functional, cell-based; conditions: SK-MEL-2, 48 h
SK-BR-3 = assay: Antiproliferative activity against human SK-BR-3 cells assessed as reduction in cell viability incubated for 48 hrs by MTT assay; format: functional, cell-based; conditions: SK-BR-3, 48 h
AMO1 [12] = assay: Antitumor activity against human AMO1 cells xenografted in mouse model assessed as tumor growth inhibition at 25 mg/kg administered for 5 days relative to control; format: functional; conditions: AMO1, 120 h, time 5 day, read-out: TGI
MV4-11 [13] = assay: Antiproliferative activity against human MV4-11 cells assessed as reduction in cell viability; format: functional, cell-based
AMO1 [14] = assay: Antiproliferative activity against human AMO1 cells assessed as reduction in cell viability; format: functional, cell-based
NCI-H929 [15] = assay: Antitumor activity against human NCI-H929 cells xenografted in mouse model assessed as tumor growth inhibition at 25 mg/kg administered for 5 days relative to control; format: functional; conditions: NCI-H929, 120 h, time 5 day, read-out: TGI
MOLP-8 [16] = assay: Induction of apoptosis in human MOLP8 cells; format: functional, cell-based
[17] = target: T2, Apoptosis regulator Bcl-2; assay: Binding affinity to Bcl-2 (unknown origin) expressed in Escherichia coli BL21 (DE3) assessed as inhibition constant by fluorescence polarization assay
MV4-11 [18] = assay: Induction of apoptosis in human MV4-11 cells; format: functional, cell-based
MOLM-13 [19] = assay: Induction of apoptosis in human MOLM-13 cells; format: functional, cell-based
SUD4 = assay: Induction of apoptosis in human SU-DHL-4 cells; format: functional, cell-based
[20] = target: T1, Induced myeloid leukemia cell differentiation protein Mcl-1; assay: Binding affinity to human Mcl-1 assessed as inhibition constant
Bcl-2-like protein 1 [21] = target: T3, Bcl-2-like protein 1 (Homo sapiens, UniProt Q07817); assay: Binding affinity to Bcl-XL (unknown origin) assessed as inhibition constant by fluorescence polarization assay
T3 sequence (Q07817 whole entry): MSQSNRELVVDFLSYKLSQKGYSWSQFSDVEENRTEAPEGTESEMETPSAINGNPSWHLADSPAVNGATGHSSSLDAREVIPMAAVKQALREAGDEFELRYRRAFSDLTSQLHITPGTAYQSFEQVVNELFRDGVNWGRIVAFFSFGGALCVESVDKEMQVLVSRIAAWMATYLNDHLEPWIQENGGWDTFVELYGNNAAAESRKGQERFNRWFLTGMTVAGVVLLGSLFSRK

MOLM-13 [22] = assay: Growth inhibition of human MOLM-13 cells by cell-titer Glo reagent based assay; format: functional
EOL1 = assay: Induction of apoptosis in human EOL1 cells; format: functional, cell-based
[23] = target: T1, Induced myeloid leukemia cell differentiation protein Mcl-1; assay: Binding affinity to Mcl-1 (unknown origin) assessed as inhibition constant
[24] = target: T1, Induced myeloid leukemia cell differentiation protein Mcl-1; assay: Inhibition of N-terminal GST-tagged human Mcl-1expressed in Escherichia coli by TR-FRET analysis
[25] = target: T1, Induced myeloid leukemia cell differentiation protein Mcl-1; assay: Inhibition of Mcl-1 (unknown origin)
Bcl-2-like protein 2 = Bcl-2-like protein 2 (Homo sapiens, UniProt Q92843); assay: Binding affinity to Bcl-W (unknown origin) assessed as inhibition constant
Bcl-2-like protein 2, sequence (Q92843 whole entry): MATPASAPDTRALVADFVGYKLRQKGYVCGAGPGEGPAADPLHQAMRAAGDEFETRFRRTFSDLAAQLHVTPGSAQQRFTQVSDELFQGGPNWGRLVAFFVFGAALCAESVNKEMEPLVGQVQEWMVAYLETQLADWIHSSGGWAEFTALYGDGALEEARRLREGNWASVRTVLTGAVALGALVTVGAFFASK

AMO1 [26] = assay: Antitumor activity against human AMO1 cells xenografted in mouse model assessed as tumor growth inhibition at 12.5 mg/kg administered for 20 days relative to control; format: functional; conditions: AMO1, 480 h, time 20 day, read-out: TGI
Bcl-2-like protein 1 [27] = target: T3, Bcl-2-like protein 1; assay: Binding affinity to Bcl-xL (unknown origin) assessed as inhibition constant
Bcl-2-related protein A1 = Bcl-2-related protein A1 (Homo sapiens, UniProt Q16548); assay: Binding affinity to Bfl-1 (unknown origin) assessed as inhibition constant
Bcl-2-related protein A1, sequence (Q16548 whole entry): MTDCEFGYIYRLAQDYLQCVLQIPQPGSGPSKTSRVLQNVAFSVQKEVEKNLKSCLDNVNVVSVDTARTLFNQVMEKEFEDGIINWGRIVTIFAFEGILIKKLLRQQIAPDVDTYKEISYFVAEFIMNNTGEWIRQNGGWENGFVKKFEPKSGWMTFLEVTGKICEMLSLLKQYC

[28] = target: T2, Apoptosis regulator Bcl-2; assay: Binding affinity to Bcl-2 (unknown origin) assessed as inhibition constant
NCI-H23 = assay: Antiproliferative activity against human NCI-H23 cells assessed as reduction in cell viability incubated for 24 hrs by Celltiter-Glo reagent based assay; format: functional; conditions: NCI-H23, 24 h
MOLP-8 [29] = assay: Antiproliferative activity against human MOLP8 cells assessed as reduction in cell viability incubated for 24 hrs by Celltiter-Glo reagent based assay; conditions: MOLP-8, 24 h
MV4-11 [30] = assay: Antiproliferative activity against human MV4-11 cells assessed as reduction in cell viability incubated for 24 hrs by Celltiter-Glo reagent based assay; conditions: MV4-11, 24 h
[31] = Oral bioavailability in CD-1 mouse at 10 mg/kg, […]; format: ADME, organism-based; conditions: in vivo

T1 sequence (Q07820 whole entry, the tested form may be a part): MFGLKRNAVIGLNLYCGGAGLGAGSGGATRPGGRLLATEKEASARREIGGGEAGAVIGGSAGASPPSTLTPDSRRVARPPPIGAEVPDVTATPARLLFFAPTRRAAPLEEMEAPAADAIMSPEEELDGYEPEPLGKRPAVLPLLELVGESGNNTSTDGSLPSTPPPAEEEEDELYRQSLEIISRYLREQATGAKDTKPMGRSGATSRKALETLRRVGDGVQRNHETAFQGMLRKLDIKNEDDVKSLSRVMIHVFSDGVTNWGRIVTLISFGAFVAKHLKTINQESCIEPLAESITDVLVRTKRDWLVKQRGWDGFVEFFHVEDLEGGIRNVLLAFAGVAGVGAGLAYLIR

## O=C(O)CSc1cc(NS(=O)(=O)c2ccc(Br)cc2)c2ccccc2c1O
[1]
  IC50: 310 nM

## Cc1cc(OCCC(=O)O)cc(C)c1Cl
[2]
  Ki: 68000 nM

## Cc1c(-c2c(-c3ccc(F)o3)sc3ncnc(O[C@H](Cc4ccccc4OCc4ccnn4CC(F)(F)F)C(=O)O)c23)ccc(OCCN2CCN(C)CC2)c1Cl
MV4-11 [3]
  inhibition in vivo at 12.5 mg/kg: 86%
NCI-H929 [4]
  EC50: < 10 nM
OCI-AML-5
  IC50: 4 nM
[5]
  Ki: > 10000 nM

## Cc1cc(OCCCc2c3n(c4c(-c5c(C)nn(C)c5C)c(Cl)ccc24)[C@H](C)CN(c2cn(C)c4ccc(C(=O)O)cc24)C3=O)cc(C)c1Cl
THP-1
  GI50: 490 nM
HCC1187
  GI50: 2100 nM
MV4-11 [6]
  GI50: 180 nM
MV4-11 [7]
  inhibition in vivo at 100 mg/kg: 60%
BC
  GI50: 1300 nM
MOLM-13 [8]
  GI50: 210 nM
HL-60
  GI50: 3710 nM

## CCc1sc2ncnc(N[C@@H](C)C(=O)O)c2c1CC
[9]
  Kd: 0.19 nM
[10]
  Ki: 1.2 nM

## COc1ccccc1-c1nccc(COc2ccccc2C[C@H](Oc2ncnc3sc(-c4ccc(F)cc4)c(-c4ccc(OCCN5CCN(C)CC5)c(Cl)c4C)c23)C(=O)O)n1
AMO1 [11]
  inhibition in vivo at 6.25 mg/kg: 190%
NCI-H522
  IC50: < 100 nM
SK-MEL-2
  IC50: < 100 nM
SK-BR-3
  IC50: < 100 nM
AMO1 [12]
  inhibition in vivo at 25 mg/kg: 114%
MV4-11 [13]
  EC50: 10.9 nM
AMO1 [14]
  EC50: 2.06 nM
NCI-H929 [4]
  EC50: 4.75 nM
NCI-H929 [15]
  inhibition in vivo at 25 mg/kg: 103%

## COCCOCCn1nc(C)c2c1CSCc1cc(n(C)n1)CCc1cc(c3ccccc3c1)OCCCn1c(C(=O)O)c(C)c3c-2c(Cl)ccc31
MOLP-8 [16]
  AC50: 8.7 nM
[17]
  Ki: 3750 nM
MV4-11 [18]
  AC50: 14 nM
MOLM-13 [19]
  AC50: 10 nM
SUD4
  AC50: 21 nM
[20]
  Ki: 0.006 nM
Bcl-2-like protein 1 [21]
  Ki: 5000 nM
MOLM-13 [22]
  GI50: 10 nM
EOL1
  AC50: 2.1 nM

## CCC1CC/C=C/C(O)C2CCC2CN2CC3(CCc4cc(Cl)ccc43)COc3ccc(cc32)C(=O)NS1(=O)=O (stereo unspecified)
[23]
  Ki: 0.05 nM

## Cc1cc(SCc2nn(C)c(C)c2-c2cccc3c(CCCOc4cccc5ccccc45)c(C(=O)O)[nH]c23)nn1C
[24]
  IC50: 42 nM

## O=C(NS(=O)(=O)Cc1ccccc1)c1ccc2c(c1)N(CC1CCC1)CC(c1ccc(Cl)cc1Cl)O2 (stereo unspecified)
[25]
  IC50: 300 nM

## Cc1c(Cl)c2c(Cl)c(C)c1-c1c(-c3ccc(F)cc3)sc3ncnc(c13)O[C@@H](C(=O)O)Cc1cc(ccc1OCc1ccnc(-c3ccc(OC[C@@H]4COCCO4)cc3)n1)OC[C@@H](CN1CCN(C)CC1)O2
Bcl-2-like protein 2
  Ki: > 468 nM
MV4-11 [13]
  EC50: 3.91 nM
AMO1 [14]
  EC50: 0.16 nM
AMO1 [26]
  inhibition in vivo at 12.5 mg/kg: 46%
[23]
  Ki: < 0.01 nM
NCI-H929 [4]
  EC50: 0.47 nM
Bcl-2-like protein 1 [27]
  Ki: > 660 nM
Bcl-2-related protein A1
  Ki: > 468 nM
[28]
  Ki: 599 nM

## Cc1c2c(nn1C)CSCc1cc(n(C)n1)CCc1cc(c3ccccc3c1)OCCCc1c(C(=O)O)[nH]c3c-2cccc13
[24]
  IC50: 19 nM

## Cc1c2c(nn1C)CSCc1cc(n(C)n1)CSc1cc(c3ccccc3c1)OCCCc1c(C(=O)O)n(C)c3c-2c(Cl)ccc13 [AZD-5991]
NCI-H23
  EC50: 190 nM
MOLP-8 [29]
  EC50: 33 nM
MV4-11 [13]
  EC50: 34.9 nM
AMO1 [14]
  EC50: 22.9 nM
NCI-H929 [4]
  EC50: 31.7 nM
MV4-11 [30]
  EC50: 24 nM

## CO[C@]1(CN2CCN3CCCC[C@@H]3C2)/C=C/C[C@H](C)[C@@H](C)S(=O)(=O)NC(=O)c2ccc3c(c2)N(C[C@@H]2CC[C@H]21)C[C@@]1(CCCc2cc(Cl)ccc21)CO3 [MURIZATOCLAX]
MV4-11 [13]
  EC50: 43.6 nM
AMO1 [14]
  EC50: 13.5 nM
NCI-H929 [4]
  EC50: 13 nM

## CC1(C)CCC(c2ccc(Cl)cc2)=C(CN2CCN(c3ccc(C(=O)NS(=O)(=O)c4ccc(N[C@H](CCN5CCOCC5)CSc5ccccc5)c(S(=O)(=O)C(F)(F)F)c4)cc3)CC2)C1 [NAVITOCLAX]
[31]
  bioavailability: 57%
